This passage reports IC50 results from PubChem BioAssay AID743132 (The Scripps Research Institute Molecular Screening Center, 2013).

Holding throughout (assay): LYPLA1/2 inhibition with ABHD6 and FAAH off-targets, late-stage follow-up, selectivity assay for LYPLA1/LYPLA2 inhibitor project, cell lysate, mouse brain membrane proteome, fluorescence gel (AID 743132)
Assay [1] concerns the target Acyl-protein thioesterase 1 (Mus musculus) (UniProt P97823). The settings on record: gel-based ABPP FP-Rh fluorescence, LYPLA1/2.
Assay [2] has as its target FAAH. The following applies: gel-based ABPP FP-Rh fluorescence.
Assay [3] concerns the target Monoacylglycerol lipase ABHD6 (Mus musculus) (UniProt Q8R2Y0). The following applies: gel-based ABPP FP-Rh fluorescence.

Molecules are shown by their SMILES. Activity calls are given as the source filed them.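 Rule for the calls: active = compounds blocking probe labeling of mouse brain LYPLA1 and LYPLA2 with IC50 at most 1000 nM; inactive = IC50 above 1000 nM.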

Chain of Acyl-protein thioesterase 1 (Mus musculus) (P97823 whole entry, looked up): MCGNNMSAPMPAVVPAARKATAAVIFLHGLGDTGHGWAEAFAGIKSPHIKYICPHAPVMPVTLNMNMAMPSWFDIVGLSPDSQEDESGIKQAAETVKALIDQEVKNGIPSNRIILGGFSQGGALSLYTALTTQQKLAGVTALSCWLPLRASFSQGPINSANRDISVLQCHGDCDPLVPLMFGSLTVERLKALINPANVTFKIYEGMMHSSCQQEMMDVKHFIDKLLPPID
Chain of Monoacylglycerol lipase ABHD6 (Mus musculus) (Q8R2Y0 whole entry, looked up): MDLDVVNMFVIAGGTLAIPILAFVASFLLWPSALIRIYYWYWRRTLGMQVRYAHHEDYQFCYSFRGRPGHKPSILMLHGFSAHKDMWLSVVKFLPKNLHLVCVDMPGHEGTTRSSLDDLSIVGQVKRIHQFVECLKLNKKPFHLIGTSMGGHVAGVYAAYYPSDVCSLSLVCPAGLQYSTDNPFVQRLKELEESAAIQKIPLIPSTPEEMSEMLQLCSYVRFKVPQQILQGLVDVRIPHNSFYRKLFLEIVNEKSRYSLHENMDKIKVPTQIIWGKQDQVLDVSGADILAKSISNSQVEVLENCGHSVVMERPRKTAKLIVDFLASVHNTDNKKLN

As to `O=C(ON1C(=O)C2CN(C(=O)N3CCOCC3)CCN2C1=O)N1CCC(CCc2ccc(Cl)cc2)CC1` (stereo not drawn), the half-inhibitory concentration (IC50) in assay [1] was 154 nM; in assay [3], 3.15 nM. Further, the IC50 entry in assay [2] was “inactive”.

A word on the IC50: it is the concentration that inhibits the measured activity by half.
